Experimental data taken from US11453632B2, “1-phenyl-2-phenylethane derivative” (KAO CORPORATION, priority 2018, dated 2022).

What was measured:
ERα LBD = biological target: T1, ERα LBD (Homo sapiens, UniProt P03372); assay: Ability to bind to ERα: pBIND-ERα LBD / GAL4 luciferase reporter in HEK293 cells; format: cell-based; parameters: key: firefly luciferase / Renilla luciferase luminescence ratio; conditions: negative control 0.00847035
T1 construct: host or cells: HEK293
T1 sequence (P03372 311-547 limits assumed): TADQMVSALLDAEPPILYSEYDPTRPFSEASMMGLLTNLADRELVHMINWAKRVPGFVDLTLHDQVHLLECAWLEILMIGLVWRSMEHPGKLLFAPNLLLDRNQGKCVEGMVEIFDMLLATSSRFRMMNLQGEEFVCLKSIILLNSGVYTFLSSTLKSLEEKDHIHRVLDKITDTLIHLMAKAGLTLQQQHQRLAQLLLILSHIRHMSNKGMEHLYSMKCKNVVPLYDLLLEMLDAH
Procedure: (§1) A human kidney-derived cell line HEK293 was cultured (37° C., 5% CO2) in Dulbecco's modified Eagle medium (hereinafter, abbreviated to DMEM) containing 10% (v/v) fetal bovine serum (FBS) and penicillin/streptomycin.
(§2) 2) Measurement of Binding Activity Against ERs
(§3) Specifically, HEK293 cells were inoculated at a cell density of 4.0×10^4 cells/well to a 96-well plate. After 12 hours therefrom, the medium was replaced with a culture solution (DMEM containing 5% (v/v) charcoal-treated serum). The cells were cotransfected with pBIND-ERα for the expression of ERα LBD or pBIND-ERβ for the expression of ERβ LBD (Promega Corp.) and pGL4.35[luc2P/9XGAL4UAS/Hygro](Promega Corp.) using Lipofectamine 2000 (Invitrogen Corp.) according to the protocol attached to the product. 24 hours after transfection, the medium was replaced with a culture solution containing a test sample, followed by culture for another 24 hours. The activity measurement of firefly luciferase (index for the ligand binding activity of ER) and Renilla reniformis luciferase (index for the transfection efficiency of the plasmids) was carried out using Dual-Glo™ Luciferase Assay System (Promega Corp.) according to the attached protocol. The luminescence intensity of the firefly luciferase was divided by the luminescence intensity of the Renilla reniformis luciferase to calculate a relative light unit (RLU).

ERβ LBD = biological target: T2, ERβ LBD (Homo sapiens, UniProt Q92731); assay: Ability to bind to ERβ: pBIND-ERβ LBD / GAL4 luciferase reporter in HEK293 cells; format: cell-based; parameters: key: RLU = firefly luminescence / Renilla luminescence; conditions: negative control 0.0118997
T2 construct: host or cells: HEK293
Procedure: This evaluation system is a system exploiting difference in the sequence of the ligand binding domain (LBD) between ERα and ERβ (J Endocrinol 163: 379-383 (1999)), and enables selective activation of ERβ to be evaluated by determining the binding of a ligand to LBD and the activation of ER.
as §1, §2
as §3, with “This measurement was carried out according to the method described in JP-B-5990058. Specifically,” for “Specifically,”

T2 sequence (Q92731 264-498 limits assumed): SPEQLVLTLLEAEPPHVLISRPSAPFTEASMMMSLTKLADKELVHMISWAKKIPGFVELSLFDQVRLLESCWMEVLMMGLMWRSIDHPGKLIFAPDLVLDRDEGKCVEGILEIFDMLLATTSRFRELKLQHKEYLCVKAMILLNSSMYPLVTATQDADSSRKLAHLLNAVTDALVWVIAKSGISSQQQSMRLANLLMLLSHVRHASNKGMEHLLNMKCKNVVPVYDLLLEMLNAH

relative light unit (RLU), ligand binding activity ERα (ERα LBD; 0.01 nM) | relative light unit (RLU), ligand binding activity ERα (ERα LBD; 0.1 nM) | relative light unit (RLU), ligand binding activity ERα (ERα LBD; 1 nM) | relative light unit (RLU), ligand binding activity ERα (ERα LBD; 10 nM) | relative light unit (RLU), ligand binding activity ERα (ERα LBD; 100 nM) | relative light unit (RLU), ligand binding activity ERβ (ERβ LBD; 0.01 nM) | relative light unit (RLU), ligand binding activity ERβ (ERβ LBD; 0.1 nM) | relative light unit (RLU), ligand binding activity ERβ (ERβ LBD; 1 nM) | relative light unit (RLU), ligand binding activity ERβ (ERβ LBD; 10 nM) | relative light unit (RLU), ligand binding activity ERβ (ERβ LBD; 100 nM) | SMILES
0.006803 | 0.02077 | 0.01753 | 0.01191 | 0.008685 | 0.01836 | 0.01732 | 0.03073 | 0.02066 | 0.026 | Oc1ccc(CC(c2ccc(O)cc2)c2ccn[nH]2)cc1 (centres unmarked) [Compound 12, 4,4′-(1-(1H-pyrazol-5-yl)ethane-1,2-diyl)diphenol]
0.005812 | 0.005926 | 0.007223 | 0.1184 | 0.423 | 0.01223 | 0.5254 | 0.9979 | 1.068 | 1.031 | Oc1ccc(CC(C=CF)c2ccc(O)cc2)cc1 (centres unmarked) [Compound 8, 4,4′-(4-fluorobut-3-ene-1,2-diyl)diphenol]
0.01031 | 0.01495 | 0.02004 | 0.01493 | 0.02047 | 0.02708 | 0.02188 | 0.02069 | 0.08851 | 0.9946 | Oc1ccc(CC(c2ccc(O)cc2)c2ncon2)cc1 (centres unmarked) [Compound 14, 4,4′-(1-(1,2,4-oxadiazol-3-yl)ethane-1,2-diyl)diphenol]

More lines, now with the values behind:

SMILES | relative light unit (RLU), ligand binding activity ERα (ERα LBD; 0.01 nM) | relative light unit (RLU), ligand binding activity ERα (ERα LBD; 0.1 nM) | relative light unit (RLU), ligand binding activity ERα (ERα LBD; 1 nM) | relative light unit (RLU), ligand binding activity ERα (ERα LBD; 10 nM) | relative light unit (RLU), ligand binding activity ERα (ERα LBD; 100 nM) | relative light unit (RLU), ligand binding activity ERβ (ERβ LBD; 0.01 nM) | relative light unit (RLU), ligand binding activity ERβ (ERβ LBD; 0.1 nM) | relative light unit (RLU), ligand binding activity ERβ (ERβ LBD; 1 nM) | relative light unit (RLU), ligand binding activity ERβ (ERβ LBD; 10 nM) | relative light unit (RLU), ligand binding activity ERβ (ERβ LBD; 100 nM)
Oc1ccc(CC(C=C(Cl)Cl)c2ccc(O)cc2F)c(F)c1 (centres unmarked) [Compound 17-Cl, 4,4′-(4,4-dichlorobut-3-ene-1,2-diyl)bis(3-fluorophenol)] | 0.03467 | 0.03125 | 0.05395 | 0.92 | 2.707 | 0.04108 | 0.116 | 1.22 | 1.682 | 2.029
CCC(C)C(Cc1ccc(O)cc1)c1ccc(O)cc1 (centres unmarked) [Compound 6, 4,4′-(3-methylpentane-1,2-diyl)diphenol] |  |  | 0.008097 | 0.01098 | 0.01183 |  |  | 0.01046 | 0.02031 | 0.2041
Oc1ccc(C(C=C(Cl)Cl)Cc2c(F)cc(O)cc2F)cc1 (centres unmarked) [Compound 18-Cl, 4-(4,4-dichloro-2-(4-hydroxyphenyl)but-3-en-1-yl)-3,5-difluorophenol] | 0.0398 | 0.04255 | 0.122 | 2.2626 | 3.229 | 0.07422 | 0.4259 | 1.819 | 1.997 | 2.261
